How the values were obtained:
Format in all cases: in vivo
[1] = Short term HFD mouse model, plasma and liver exposure; conditions: three oral doses of 20 mg/kg, HFD C57BL/6J mice; for Kp at 4 h: mouse, liver/plasma, read-out: liver/plasma ratio, 4 h; for liver exposure, 4 h / plasma exposure, 4 h: 4 h after final treatment
Description: (§1) Short Term HFD Mouse Model:
(§2) The in vivo transcriptional regulation of several LXR target genes by LXR modulators was assessed in mice.
For this, C57BL/6J were purchased from Elevage Janvier (Rennes, France) at the age of 8 weeks. After an acclimation period of two weeks, animals were preferred on a high fat diet (HFD) (Ssniff Spezialdiaten GmbH, Germany, Surwit EF D12330 mod, Cat. No. E15771-34), with 60 kcal % from fat plus 1% (w/w) extra cholesterol (Sigma-Aldrich, St. Louis, Mo.) for 5 days. Animals were maintained on this diet during treatment with LXR modulators. The test compounds were formulated in 0.5% hydroxypropylmethylcellulose (HPMC) and administered in three doses (20 mg/kg each) by oral gavage according to the following schedule: on day one, animals received treatment in the morning and the evening (ca. 17:00), on day two animals received the final treatment in the morning after a 4 h fast and were sacrificed 4 h thereafter. Animal work was conducted according to the national guidelines for animal care in Germany.
(§3) Upon termination, liver was collected, dipped in ice cold PBS for 30 seconds and cut into appropriate pieces. Pieces were snap frozen in liquid nitrogen and stored at −80° C. For the clinical chemistry analysis from plasma, alanine aminotransferase (ALT, IU/mL), cholesterol (CHOL, mg/dL) and triglycerides (TG, mg/dL) were determined using a fully-automated bench top analyzer (Respons®910, DiaSys Greiner GmbH, Flacht, Germany) with system kits provided by the manufacturer.

Fasn = experiment: Short term HFD mouse model, gene expression in liver tissue: Fasn; conditions: liver mRNA (qPCR, normalized to Tbp), three oral doses of 20 mg/kg, HFD mice
Description: as §1, §2
(§4) For this, C57BL/6J were purchased from Elevage Janvier (Rennes, France) at the age of 8 weeks. After an acclimation period of two weeks, animals were preferred on a high fat diet (HFD) (Ssniff Spezialdiaten GmbH, Germany, Surwit EF D12330 mod, Cat. No. E15771-34), with 60 kcal % from fat plus 1% (w/w) extra cholesterol (Sigma-Aldrich, St. Louis, Mo.) for 5 days. Animals were maintained on this diet during treatment with LXR modulators. […]
as §3, with “Pieces were snap frozen in liquid nitrogen and stored at −80° C.” left out, “manufacturer. […]” for “manufacturer.”
(§5) To obtain total RNA from frozen liver tissue, samples (25 mg liver tissue) were first homogenized with RLA buffer (4M guanidin thiocyanate, 10 mM Tris, 0.97% w:v β-mercapto-ethanol). […] Quantitative PCR was performed and analyzed using Prime time Gene expression master mix (Integrated DNA Technologies, Coralville, Iowa, USA) and a 384-format ABI 7900HT Sequence Detection System (Applied Biosystems, Foster City, USA). […]

Scd1 = experiment: Short term HFD mouse model, gene expression in liver tissue: Scd1; conditions: liver mRNA (qPCR, normalized to Tbp), three oral doses of 20 mg/kg, HFD mice
Description: as §1, §2, §4
as §3, with “Pieces were snap frozen in liquid nitrogen and stored at −80° C.” left out, “manufacturer. […]” for “manufacturer.”
as §5

Srebp1c = experiment: Short term HFD mouse model, gene expression in liver tissue: Srebp1c; conditions: liver mRNA (qPCR, normalized to Tbp), three oral doses of 20 mg/kg, HFD mice
Description: as §1, §2, §4
as §3, with “Pieces were snap frozen in liquid nitrogen and stored at −80° C.” left out, “manufacturer. […]” for “manufacturer.”
as §5

Hepatic LXR target genes = experiment: Short term HFD mouse model, hepatic LXR target genes (summary in words); conditions: multiple oral dosing in mice
Description: as §1, §2, §4
as §5, with “USA). The expression of the following genes was analysed: Stearoyl-CoA desaturase1 (Scd1), fatty acid synthase (Fas) and sterol regulatory element-binding protein1 (Srebp1).” for “USA).”

Row | Kp at 4 h [1] | liver exposure, 4 h [1] | plasma exposure, 4 h [1] | Structure (SMILES) | Fasn suppression compared to vehicle (Fasn) | Scd1 suppression compared to vehicle (Scd1) | Srebp1c suppression compared to vehicle (Srebp1c) | Hepatic LXR target genes (in words) (Hepatic LXR target genes)
1 | 33.3 | 4.372 µM | 131 nM | Cc1cc(C)c(S(=O)(=O)N(Cc2ccc(C(F)(F)F)o2)Cc2ccc(-c3cccc(C(C)(C)C(=O)O)c3)cc2Cl)c(C)c1 [10/5] | 0.41 | 0.38 | 0.33 | effectively suppressed
2 | 52.4 | 5.359 µM | 102 nM | Cc1ccc2ccccc2c1S(=O)(=O)N(Cc1ccc(-c2cccc(C(C)(C)C(=O)O)c2)cc1)Cc1ccc(C(F)(F)F)o1 [Example 24, 2-Methyl-2-(4′-(((2-methyl-N-((5-(trifluoromethyl)furan-2-yl)methyl)naphthalene)-1-sulfonamido)methyl)-[1,1′-biphenyl]-3-yl)propanoic acid] | 0.23 | 0.25 | 0.25 | effectively suppressed

Source: US20200115357A1, “LIVER X RECEPTORS (LXR) MODULATORS” (Phenex-FXR GmbH, priority 2017, published 2020)
